From paper PMC3433420 (PLoS ONE, 2012)
Residues, ends and D or L forms follow the SMILES beside them.

Experiments:
[1] = molecular target: T1, SH2 and PTB domains (Homo sapiens, UniProt O14796); experiment: In-house protein microarrays (with or without 5 mM DTT), protein named per line; assay type: binding; details: protein SH2D1B
T1 construct: thioredoxin; made in house; host or cells: BL21(DE3)pLysS E. coli
T1 sequence (O14796 1-132): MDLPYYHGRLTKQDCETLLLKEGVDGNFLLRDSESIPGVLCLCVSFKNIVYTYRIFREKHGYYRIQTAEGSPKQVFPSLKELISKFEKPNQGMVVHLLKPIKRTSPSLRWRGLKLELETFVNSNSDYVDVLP
Procedure, shortened: (§1)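 Recombinant domains (~40 µM) spotted in duplicate on aldehyde slides, quenched 1 h at room temperature in HEPES/KCl/Tween-20 buffer pH 7.8 with 5 mM DTT and 1% BSA, then probed with rhodamine-labeled peptide. Thioredoxin-subtracted mean fluorescence fitted for KD.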

[2] = molecular target: VAV1 SH2 domain (Homo sapiens, UniProt P15498); experiment: FP saturation binding assay
[3] = molecular target: STAP1 SH2 domain (Homo sapiens, UniProt Q9ULZ2); experiment: FP saturation binding assay
[4] = molecular target: T2, HSH2D SH2 domain (Homo sapiens, UniProt Q96JZ2); experiment: FP saturation binding assay
T2 sequence (Q96JZ2 34-125 limits assumed): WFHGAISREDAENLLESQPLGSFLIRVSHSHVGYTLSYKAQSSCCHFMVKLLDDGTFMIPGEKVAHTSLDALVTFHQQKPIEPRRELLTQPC

[5] = molecular target: SHC1 SH2 domain (Homo sapiens, UniProt P29353); experiment: FP saturation binding assay
[6] = molecular target: T3, SH2 and PTB domains (Homo sapiens, UniProt Q8IZW8); experiment: In-house protein microarrays (with or without 5 mM DTT), protein named per line; assay type: binding; details: protein TNS4; PM assay replicate # 39307; array fabrication # 39286
T3 construct: thioredoxin; made in house; host or cells: BL21(DE3)pLysS E. coli
T3 sequence (Q8IZW8 19-715): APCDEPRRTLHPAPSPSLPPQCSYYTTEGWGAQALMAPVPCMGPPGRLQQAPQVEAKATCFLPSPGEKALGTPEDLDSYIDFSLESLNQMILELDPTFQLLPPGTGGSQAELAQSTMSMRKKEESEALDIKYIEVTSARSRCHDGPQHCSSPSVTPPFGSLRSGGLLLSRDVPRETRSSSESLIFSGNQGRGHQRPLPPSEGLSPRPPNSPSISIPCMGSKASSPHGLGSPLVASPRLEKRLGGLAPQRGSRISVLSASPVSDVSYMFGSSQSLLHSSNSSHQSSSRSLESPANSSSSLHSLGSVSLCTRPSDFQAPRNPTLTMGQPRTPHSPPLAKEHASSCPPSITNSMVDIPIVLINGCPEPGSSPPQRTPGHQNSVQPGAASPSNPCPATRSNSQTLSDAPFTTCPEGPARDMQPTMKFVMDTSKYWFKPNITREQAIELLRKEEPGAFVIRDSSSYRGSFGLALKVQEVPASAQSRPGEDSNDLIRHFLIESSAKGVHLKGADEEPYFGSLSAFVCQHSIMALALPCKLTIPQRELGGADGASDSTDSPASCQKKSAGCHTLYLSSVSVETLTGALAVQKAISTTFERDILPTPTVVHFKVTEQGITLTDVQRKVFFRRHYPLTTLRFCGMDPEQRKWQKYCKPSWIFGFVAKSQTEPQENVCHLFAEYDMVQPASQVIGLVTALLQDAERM
Procedure, shortened: as §1

[7] = molecular target: T4, SH2 and PTB domains (Homo sapiens, UniProt P46108); experiment: as above; assay type: binding; details: protein CRK; PM assay replicate # 39307; array fabrication # 39286
T4 construct: thioredoxin; made in house; host or cells: BL21(DE3)pLysS E. coli
Procedure, shortened: as §1

[8] = molecular target: T5, SH2 and PTB domains (Homo sapiens, UniProt Q8WV28); experiment: as above; assay type: binding; details: protein BLNK; PM assay replicate # 39307; array fabrication # 39286
T5 construct: thioredoxin; made in house; host or cells: BL21(DE3)pLysS E. coli
Procedure, shortened: as §1

[9] = molecular target: T6, SH2 and PTB domains (Homo sapiens, UniProt Q13322); experiment: as above; assay type: binding; details: protein GRB10; PM assay replicate # 39307; array fabrication # 39286
T6 construct: thioredoxin; made in house; host or cells: BL21(DE3)pLysS E. coli
Procedure, shortened: as §1

[10] = molecular target: BLK SH2 domain (Homo sapiens, UniProt P51451); experiment: FP saturation binding assay
[11] = molecular target: PLCG1-N SH2 domain (Homo sapiens, UniProt P19174); experiment: FP saturation binding assay
[12] = molecular target: NCK2 SH2 domain (Homo sapiens, UniProt O43639); experiment: FP saturation binding assay
Chain of NCK2 SH2 domain (O43639 285-380 limits assumed): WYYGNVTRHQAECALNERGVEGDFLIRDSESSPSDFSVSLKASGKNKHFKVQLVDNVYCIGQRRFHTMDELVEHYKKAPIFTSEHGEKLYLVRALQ

[13] = molecular target: T7, SH2 and PTB domains (Homo sapiens, UniProt Q8N5H7); experiment: In-house protein microarrays (with or without 5 mM DTT), protein named per line; assay type: binding; details: protein SH2D3C, array fabrication # 39329
T7 construct: thioredoxin; made in house; host or cells: BL21(DE3)pLysS E. coli
T7 sequence (Q8N5H7 whole entry, the tested form may be a part): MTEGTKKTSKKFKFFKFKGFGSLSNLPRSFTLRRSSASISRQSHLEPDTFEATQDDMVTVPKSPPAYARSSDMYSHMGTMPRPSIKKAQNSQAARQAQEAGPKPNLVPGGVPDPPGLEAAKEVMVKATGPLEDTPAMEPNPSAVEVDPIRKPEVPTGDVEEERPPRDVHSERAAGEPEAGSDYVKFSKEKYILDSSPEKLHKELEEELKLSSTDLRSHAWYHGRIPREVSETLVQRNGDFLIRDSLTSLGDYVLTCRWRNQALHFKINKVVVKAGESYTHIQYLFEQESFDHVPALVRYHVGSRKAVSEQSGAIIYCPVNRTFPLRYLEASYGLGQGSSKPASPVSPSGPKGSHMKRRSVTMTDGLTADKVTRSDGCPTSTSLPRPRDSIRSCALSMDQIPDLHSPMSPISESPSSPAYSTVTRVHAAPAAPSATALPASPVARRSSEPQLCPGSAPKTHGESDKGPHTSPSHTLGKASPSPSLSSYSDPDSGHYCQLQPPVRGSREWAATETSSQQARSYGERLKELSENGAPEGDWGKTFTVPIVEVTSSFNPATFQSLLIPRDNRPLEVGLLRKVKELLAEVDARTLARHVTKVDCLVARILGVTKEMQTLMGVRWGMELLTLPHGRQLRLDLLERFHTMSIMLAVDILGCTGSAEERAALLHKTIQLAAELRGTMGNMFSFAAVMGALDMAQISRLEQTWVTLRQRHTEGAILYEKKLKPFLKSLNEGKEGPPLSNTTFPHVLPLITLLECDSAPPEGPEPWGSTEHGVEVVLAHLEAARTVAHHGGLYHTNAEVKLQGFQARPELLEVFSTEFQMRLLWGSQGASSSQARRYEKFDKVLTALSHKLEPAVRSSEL
Procedure, shortened: as §1

[14] = molecular target: T8, SH2 and PTB domains (Homo sapiens, UniProt P06239); experiment: as above; assay type: binding; details: protein LCK
T8 construct: thioredoxin; made in house; host or cells: BL21(DE3)pLysS E. coli
T8 sequence (P06239 whole entry, the tested form may be a part): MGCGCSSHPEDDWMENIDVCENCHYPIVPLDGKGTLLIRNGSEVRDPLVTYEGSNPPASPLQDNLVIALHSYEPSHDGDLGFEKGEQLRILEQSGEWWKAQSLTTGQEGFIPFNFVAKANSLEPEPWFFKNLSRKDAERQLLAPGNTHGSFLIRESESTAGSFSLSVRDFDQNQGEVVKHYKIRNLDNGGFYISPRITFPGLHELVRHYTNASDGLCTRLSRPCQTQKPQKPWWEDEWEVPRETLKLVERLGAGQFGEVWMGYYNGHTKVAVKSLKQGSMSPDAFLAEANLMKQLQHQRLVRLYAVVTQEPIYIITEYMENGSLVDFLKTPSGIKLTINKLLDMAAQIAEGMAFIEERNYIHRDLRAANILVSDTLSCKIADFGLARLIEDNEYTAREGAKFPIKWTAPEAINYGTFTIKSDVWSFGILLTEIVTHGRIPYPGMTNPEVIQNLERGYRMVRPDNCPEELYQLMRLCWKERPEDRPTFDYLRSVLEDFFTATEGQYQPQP
Procedure, shortened: as §1

[15] = molecular target: T9, SH2 and PTB domains (Homo sapiens, UniProt P15498); experiment: as above; assay type: binding; details: protein VAV1, array fabrication # 39329
T9 construct: thioredoxin; made in house; host or cells: BL21(DE3)pLysS E. coli
T9 sequence (P15498 whole entry, the tested form may be a part): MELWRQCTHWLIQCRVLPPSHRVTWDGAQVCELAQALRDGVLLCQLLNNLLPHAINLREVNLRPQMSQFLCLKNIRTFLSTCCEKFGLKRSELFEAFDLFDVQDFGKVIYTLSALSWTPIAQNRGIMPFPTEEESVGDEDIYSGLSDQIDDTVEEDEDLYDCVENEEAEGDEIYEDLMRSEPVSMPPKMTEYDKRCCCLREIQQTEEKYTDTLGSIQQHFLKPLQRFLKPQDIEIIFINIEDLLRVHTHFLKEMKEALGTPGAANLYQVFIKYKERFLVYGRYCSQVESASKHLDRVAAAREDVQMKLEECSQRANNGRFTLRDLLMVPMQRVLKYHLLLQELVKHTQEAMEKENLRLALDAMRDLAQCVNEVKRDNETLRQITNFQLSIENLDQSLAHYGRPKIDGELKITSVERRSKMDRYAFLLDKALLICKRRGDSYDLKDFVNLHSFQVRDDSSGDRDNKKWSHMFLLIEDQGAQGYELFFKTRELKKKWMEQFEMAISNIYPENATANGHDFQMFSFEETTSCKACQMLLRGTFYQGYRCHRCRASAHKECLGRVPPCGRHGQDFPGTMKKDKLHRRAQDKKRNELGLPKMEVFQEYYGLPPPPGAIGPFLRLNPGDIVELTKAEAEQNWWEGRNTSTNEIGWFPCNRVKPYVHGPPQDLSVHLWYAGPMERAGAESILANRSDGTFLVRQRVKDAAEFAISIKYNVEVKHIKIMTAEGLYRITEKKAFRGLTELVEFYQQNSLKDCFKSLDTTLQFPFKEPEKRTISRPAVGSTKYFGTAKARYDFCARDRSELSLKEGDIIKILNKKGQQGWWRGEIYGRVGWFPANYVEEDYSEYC
Procedure, shortened: as §1

[16] = molecular target: T10, SH2 and PTB domains (Homo sapiens, UniProt O75159); experiment: as above; assay type: binding; details: protein SOCS5; PM assay replicate # 39337; array fabrication # 39329
T10 construct: thioredoxin; made in house; host or cells: BL21(DE3)pLysS E. coli
Procedure, shortened: as §1

[17] = molecular target: T11, SH2 and PTB domains (Homo sapiens, UniProt Q63HR2); experiment: as above; assay type: binding; details: protein TENC1, array fabrication # 39329
T11 construct: thioredoxin; made in house; host or cells: BL21(DE3)pLysS E. coli
T11 sequence (Q63HR2 whole entry, the tested form may be a part): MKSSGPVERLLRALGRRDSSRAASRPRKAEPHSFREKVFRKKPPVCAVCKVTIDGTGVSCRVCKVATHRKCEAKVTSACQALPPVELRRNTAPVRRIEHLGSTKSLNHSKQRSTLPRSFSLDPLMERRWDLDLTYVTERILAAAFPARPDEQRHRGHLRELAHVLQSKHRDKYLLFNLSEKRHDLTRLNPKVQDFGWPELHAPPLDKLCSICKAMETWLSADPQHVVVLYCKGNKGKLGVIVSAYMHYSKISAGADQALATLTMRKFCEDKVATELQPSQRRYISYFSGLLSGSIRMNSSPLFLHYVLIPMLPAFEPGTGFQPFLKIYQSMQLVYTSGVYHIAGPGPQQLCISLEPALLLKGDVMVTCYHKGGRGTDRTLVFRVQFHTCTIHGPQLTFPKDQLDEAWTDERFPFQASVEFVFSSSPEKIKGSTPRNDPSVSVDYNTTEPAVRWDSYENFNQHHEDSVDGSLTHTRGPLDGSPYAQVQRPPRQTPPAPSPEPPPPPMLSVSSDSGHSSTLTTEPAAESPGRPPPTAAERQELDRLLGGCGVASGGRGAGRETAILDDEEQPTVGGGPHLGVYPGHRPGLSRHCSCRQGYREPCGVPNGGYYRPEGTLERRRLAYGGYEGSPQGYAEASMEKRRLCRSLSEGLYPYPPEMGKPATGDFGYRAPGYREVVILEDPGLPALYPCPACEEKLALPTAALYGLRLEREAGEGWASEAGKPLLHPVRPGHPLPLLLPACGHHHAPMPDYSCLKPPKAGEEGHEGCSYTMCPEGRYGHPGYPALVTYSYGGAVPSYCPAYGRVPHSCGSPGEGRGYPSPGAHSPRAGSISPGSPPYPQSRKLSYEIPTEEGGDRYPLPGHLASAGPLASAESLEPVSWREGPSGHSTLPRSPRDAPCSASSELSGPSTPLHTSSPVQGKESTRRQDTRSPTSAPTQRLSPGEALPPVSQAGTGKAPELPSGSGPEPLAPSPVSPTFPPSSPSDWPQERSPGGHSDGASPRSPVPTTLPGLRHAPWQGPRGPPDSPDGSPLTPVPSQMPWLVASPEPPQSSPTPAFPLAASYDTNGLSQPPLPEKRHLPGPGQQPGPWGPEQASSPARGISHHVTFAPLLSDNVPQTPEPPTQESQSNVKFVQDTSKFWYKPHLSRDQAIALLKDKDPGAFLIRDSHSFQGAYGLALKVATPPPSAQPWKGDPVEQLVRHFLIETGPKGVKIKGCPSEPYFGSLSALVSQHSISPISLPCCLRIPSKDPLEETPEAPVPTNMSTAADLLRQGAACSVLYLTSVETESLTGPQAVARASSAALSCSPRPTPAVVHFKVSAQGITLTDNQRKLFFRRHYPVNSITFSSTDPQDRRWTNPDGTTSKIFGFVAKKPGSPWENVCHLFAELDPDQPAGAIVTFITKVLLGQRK
Procedure, shortened: as §1

[18] = molecular target: T12, SH2 and PTB domains (Homo sapiens, UniProt Q06124); experiment: as above; assay type: binding; details: protein PTPN11-NC, array fabrication # 39329
T12 construct: thioredoxin; made in house; host or cells: BL21(DE3)pLysS E. coli
T12 sequence (Q06124 whole entry, the tested form may be a part): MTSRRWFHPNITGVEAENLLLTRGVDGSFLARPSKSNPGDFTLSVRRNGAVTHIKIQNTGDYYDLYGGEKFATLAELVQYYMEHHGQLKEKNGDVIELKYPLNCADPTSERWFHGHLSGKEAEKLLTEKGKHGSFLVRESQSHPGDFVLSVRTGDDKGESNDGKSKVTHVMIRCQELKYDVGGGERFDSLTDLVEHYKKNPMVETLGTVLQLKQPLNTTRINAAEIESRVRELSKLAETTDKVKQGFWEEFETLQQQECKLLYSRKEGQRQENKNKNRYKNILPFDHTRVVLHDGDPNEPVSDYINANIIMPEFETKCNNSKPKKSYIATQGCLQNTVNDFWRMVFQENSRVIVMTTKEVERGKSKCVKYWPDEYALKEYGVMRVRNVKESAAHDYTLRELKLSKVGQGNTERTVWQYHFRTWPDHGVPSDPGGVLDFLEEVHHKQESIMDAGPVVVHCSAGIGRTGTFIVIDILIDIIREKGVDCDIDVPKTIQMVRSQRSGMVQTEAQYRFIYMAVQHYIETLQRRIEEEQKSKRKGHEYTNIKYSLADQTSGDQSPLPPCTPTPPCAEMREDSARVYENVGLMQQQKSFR
Procedure, shortened: as §1

[19] = molecular target: T13, SH2 and PTB domains (Homo sapiens, UniProt O75815); experiment: as above; assay type: binding; details: protein BCAR3; PM assay replicate # 39337; array fabrication # 39329
T13 construct: thioredoxin; made in house; host or cells: BL21(DE3)pLysS E. coli
Procedure, shortened: as §1

[20] = PM assay replicate # 39336, array fabrication # 39329
[21] = PM assay replicate # 39603, array fabrication # 39392

## CC(C)C[C@H](NC(=O)[C@@H]1CCCN1)C(=O)N[C@@H](CCC(N)=O)C(=O)N[C@@H](CCCNC(=N)N)C(=O)N[C@@H](Cc1ccc(OP(=O)(O)O)cc1)C(=O)N[C@@H](CO)C(=O)N[C@@H](CCC(=O)O)C(=O)N[C@@H](CC(=O)O)C(=O)N1CCC[C@H]1C(=O)N[C@H](C(=O)N[C@H](C(=O)N1CCC[C@H]1C(=O)N[C@@H](CC(=O)O)C(=O)O)C(C)C)[C@@H](C)O [ErbB2 pY1112] (HELM PEPTIDE1{P.L.Q.R.[O=C([C@H](Cc1ccc(OP(=O)(O)O)cc1)N[*:1])[*:2]].S.E.D.P.T.V.P.D}$$$$V2.0)
[1]; PM assay replicate # 39331, array fabrication # 39329
  Kd: 2.03 µM
[1]; [20]
  Kd: 5.39 µM
[1]; [21]
  Kd: 0.49 µM

## CSCC[C@H](NC(=O)[C@H](Cc1ccc(OP(=O)(O)O)cc1)NC(=O)CNC(=O)[C@H](CCC(=O)O)NC(=O)[C@H](CCC(=O)O)NC(=O)[C@H](CC(=O)O)NC(=O)[C@H](CC(C)C)NC(=O)[C@H](CCC(=O)O)NC(=O)CNC(=O)[C@H](CCCNC(=N)N)NC(=O)[C@@H]1CCCN1)C(=O)N[C@H](C(=O)N1CCC[C@H]1C(=O)N[C@@H](CCSC)C(=O)N[C@@H](CCCNC(=N)N)C(=O)N[C@@H](CC(=O)O)C(=O)N[C@@H](CCCCN)C(=O)N[C@@H](CC(=O)O)C(=O)O)[C@@H](C)O [ErbB4 1150 18-mer] (HELM PEPTIDE1{P.R.G.E.L.D.E.E.G.[O=C([C@H](Cc1ccc(OP(=O)(O)O)cc1)N[*:1])[*:2]].M.T.P.M.R.D.K.D}$$$$V2.0)
[2]
  Kd: 860 nM

## CC(C)C[C@H](NC(=O)[C@H](Cc1ccc(OP(=O)(O)O)cc1)NC(=O)[C@H](CC(C)C)NC(=O)[C@@H]1CCCN1C(=O)[C@H](CCC(=O)O)NC(=O)[C@H](CC(N)=O)NC(=O)[C@@H](NC(=O)[C@H](Cc1ccc(O)cc1)NC(=O)[C@H](CCC(=O)O)NC(=O)[C@H](CC(=O)O)NC(=O)[C@@H](N)CCC(=O)O)C(C)C)C(=O)N[C@@H](CC(N)=O)C(=O)N[C@H](C(=O)N[C@@H](Cc1ccccc1)C(=O)N[C@@H](C)C(=O)N[C@@H](CC(N)=O)C(=O)N[C@H](C(=O)N[C@@H](CC(=O)O)C(=O)O)[C@@H](C)O)[C@@H](C)O [ErbB4 1208 18-mer] (HELM PEPTIDE1{E.D.E.Y.V.N.E.P.L.[O=C([C@H](Cc1ccc(OP(=O)(O)O)cc1)N[*:1])[*:2]].L.N.T.F.A.N.T.D}$$$$V2.0)
[3]
  Kd: 10.1 µM
[4]
  Kd: 1140 nM
[5]
  Kd: 11 µM

## CC[C@H](C)[C@H](NC(=O)[C@H](CC(N)=O)NC(=O)[C@H](CC(N)=O)NC(=O)[C@H](CCCCN)NC(=O)[C@H](CC(C)C)NC(=O)[C@H](Cc1ccc(OP(=O)(O)O)cc1)NC(=O)[C@H](CCC(=O)O)NC(=O)[C@H](C)NC(=O)[C@H](CCCCN)NC(=O)CNC(=O)[C@H](CC(C)C)NC(=O)[C@@H](NC(=O)[C@H](CC(N)=O)NC(=O)[C@H](C)NC(=O)[C@@H](N)Cc1ccccc1)[C@@H](C)O)C(=O)N[C@@H](CC(C)C)C(=O)N[C@@H](CO)C(=O)N[C@@H](CC(=O)O)C(=O)O [ErbB4 pY1221 (18-mer)] (HELM PEPTIDE1{F.A.N.T.L.G.K.A.E.[O=C([C@H](Cc1ccc(OP(=O)(O)O)cc1)N[*:1])[*:2]].L.K.N.N.I.L.S.D}$$$$V2.0)
[6]
  Kd: 0.32 µM
[7]
  Kd: 64.54 µM
[8]
  Kd: 4.00 µM
[9]
  Kd: 0.23 µM

## CC(C)C[C@H](NC(=O)[C@H](CC(N)=O)NC(=O)[C@@H](N)CC(=O)O)C(=O)N[C@@H](Cc1ccc(O)cc1)C(=O)N[C@@H](Cc1ccc(OP(=O)(O)O)cc1)C(=O)N[C@@H](Cc1c[nH]c2ccccc12)C(=O)N[C@@H](CC(=O)O)C(=O)N[C@@H](CCC(N)=O)C(=O)N[C@@H](CC(=O)O)C(=O)N1CCC[C@H]1C(=O)N1CCC[C@H]1C(=O)N[C@@H](CCC(=O)O)C(=O)N[C@@H](CC(=O)O)C(=O)O [ErbB2 1222 13-mer] (HELM PEPTIDE1{D.N.L.Y.[O=C([C@H](Cc1ccc(OP(=O)(O)O)cc1)N[*:1])[*:2]].W.D.Q.D.P.P.E.D}$$$$V2.0)
[10]
  Kd: 10.9 µM

## CC(C)[C@H](NC(=O)[C@H](CC(=O)O)NC(=O)[C@@H]1CCCN1C(=O)[C@H](CCC(N)=O)NC(=O)[C@H](CC(N)=O)NC(=O)[C@@H](NC(=O)[C@H](Cc1ccc(OP(=O)(O)O)cc1)NC(=O)[C@H](CCC(=O)O)NC(=O)[C@@H]1CCCN1C(=O)[C@H](CCC(N)=O)NC(=O)[C@@H]1CCCN1)C(C)C)C(=O)N[C@@H](CCCNC(=N)N)C(=O)N[C@@H](CC(=O)O)C(=O)O [ErbB2 1139 13-mer] (HELM PEPTIDE1{P.Q.P.E.[O=C([C@H](Cc1ccc(OP(=O)(O)O)cc1)N[*:1])[*:2]].V.N.Q.P.D.V.R.D}$$$$V2.0)
[11]
  Kd: 11.8 µM

## CSCC[C@H](NC(=O)[C@H](Cc1ccc(OP(=O)(O)O)cc1)NC(=O)[C@H](CCC(=O)O)NC(=O)[C@H](Cc1ccc(O)cc1)NC(=O)CNC(=O)[C@@H](N)CC(C)C)C(=O)N[C@@H](CC(=O)O)C(=O)N[C@H](C(=O)NCC(=O)N[C@@H](CO)C(=O)N[C@@H](CC(=O)O)C(=O)N[C@@H](CC(C)C)C(=O)N[C@@H](CC(=O)O)C(=O)O)C(C)C [ErbB3 1224 13-mer] (HELM PEPTIDE1{L.G.Y.E.[O=C([C@H](Cc1ccc(OP(=O)(O)O)cc1)N[*:1])[*:2]].M.D.V.G.S.D.L.D}$$$$V2.0)
[12]
  Kd: 4.6 µM

## CC(C)C[C@H](NC(=O)[C@@H]1CCCN1C(=O)[C@H](C)NC(=O)[C@@H](NC(=O)[C@H](Cc1ccc(OP(=O)(O)O)cc1)NC(=O)CNC(=O)[C@H](CC(=O)O)NC(=O)[C@@H](NC(=O)[C@@H](N)CCC(=O)O)[C@@H](C)O)C(C)C)C(=O)N[C@H](C(=O)N[C@@H](CS)C(=O)N[C@@H](CO)C(=O)N[C@@H](CC(=O)O)C(=O)O)[C@@H](C)O [ErbB2 pY1127]
[13]; PM assay replicate # 39336
  Kd: 1.52 µM
[13]; PM assay replicate # 39337
  Kd: 5.51 µM
[14]; [20]
  Kd: 0.80 µM
[14]; PM assay replicate # 39337, array fabrication # 39329
  Kd: 1.61 µM
[14]; [21]
  Kd: 0.13 µM
[15]; PM assay replicate # 39336
  Kd: 0.19 µM
[15]; PM assay replicate # 39337
  Kd: 0.09 µM
[16]
  Kd: 0.70 µM
[17]; PM assay replicate # 39336
  Kd: 32.59 µM
[17]; PM assay replicate # 39337
  Kd: 3.94 µM
[18]; PM assay replicate # 39336
  Kd: 1.53 µM
[18]; PM assay replicate # 39337
  Kd: 1.15 µM
[19]
  Kd: 0.73 µM
